Data from PubChem BioAssay AID2060493 (Molecular Pharmacology Branch, DTP, NCI, 2025).

Tested on: 616215-338-R-J1-PDC tumor spheroids, viability
Assay: Anticancer human tumor 616215-338-R-J1-PDC patient-derived colon adenocarcinoma cell line growth inhibition [GQUAD]
Details: spheroids with HUVEC and MSC; for IC50: curve of first compound; for viability, T/C: stronger effect = lower value
Summary of the method: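 Multi-cell-type spheroids of tumor cells with HUVEC and mesenchymal stem cells, treated with drug combinations. Concentrations descend in half-log steps from near clinical Cmax, or from 10 microM where Cmax is unknown; viability read-out.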

[1] = second compound 0.0316 µM, first compound 0.0316 µM
[2] = second compound 0.0316 µM, first compound 0.1 µM
[3] = second compound 0.0316 µM, first compound 0.316 µM
[4] = second compound 0.0316 µM, first compound 1 µM
[5] = second compound 0.0316 µM, first compound 3.16 µM
[6] = second compound 0.0316 µM, first compound 10 µM
[7] = second compound 0.1 µM, first compound 0.0316 µM
[8] = second compound 0.1 µM, first compound 0.1 µM
[9] = second compound 0.1 µM, first compound 0.316 µM
[10] = second compound 0.1 µM, first compound 1 µM
[11] = second compound 0.1 µM, first compound 3.16 µM
[12] = second compound 0.1 µM, first compound 10 µM
[13] = second compound 0.316 µM, first compound 0.0316 µM
[14] = second compound 0.316 µM, first compound 0.1 µM
[15] = second compound 0.316 µM, first compound 0.316 µM
[16] = second compound 0.316 µM, first compound 1 µM
[17] = second compound 0.316 µM, first compound 3.16 µM
[18] = second compound 0.316 µM, first compound 10 µM
[19] = second compound 1 µM, first compound 0.0316 µM
[20] = second compound 1 µM, first compound 0.1 µM
[21] = second compound 1 µM, first compound 0.316 µM
[22] = second compound 1 µM, first compound 1 µM
[23] = second compound 1 µM, first compound 3.16 µM
[24] = second compound 1 µM, first compound 10 µM
[25] = second compound 3.16 µM, first compound 0.0316 µM
[26] = second compound 3.16 µM, first compound 0.1 µM
[27] = second compound 3.16 µM, first compound 0.316 µM
[28] = second compound 3.16 µM, first compound 1 µM
[29] = second compound 3.16 µM, first compound 3.16 µM
[30] = second compound 3.16 µM, first compound 10 µM
[31] = second compound 10 µM, first compound 0.0316 µM
[32] = second compound 10 µM, first compound 0.1 µM
[33] = second compound 10 µM, first compound 0.316 µM
[34] = second compound 10 µM, first compound 1 µM
[35] = second compound 10 µM, first compound 3.16 µM
[36] = second compound 10 µM, first compound 10 µM
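Further: spheroids exposed to agents for 7 days before readout.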
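Wherever viability, T/C is given: percent viability relative to DMSO vehicle control wells taken as 100%.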

## CC(C)n1c(=O)n(C)c2cnc3cc(F)c(-c4ccc(OCCCN5CCCCC5)nc4)cc3c21 + Cc1[nH]c2ccc(F)cc2c1-c1nc2c3cccnc3c3ncccc3c2[nH]1
Second compound 0.0316 µM
  IC50: > 10 µM
Second compound 0.1 µM
  IC50: > 10 µM
Second compound 0.316 µM
  IC50: > 10 µM
Second compound 1 µM
  IC50: > 10 µM
Second compound 3.16 µM
  IC50: > 10 µM
Second compound 10 µM
  IC50: > 10 µM
[1]
  viability, T/C: 102%
[2]
  viability, T/C: 98.8%
[3]
  viability, T/C: 97.5%
[4]
  viability, T/C: 101%
[5]
  viability, T/C: 117%
[6]
  viability, T/C: 70.9%
[7]
  viability, T/C: 103%
[8]
  viability, T/C: 99.6%
[9]
  viability, T/C: 100%
[10]
  viability, T/C: 107%
[11]
  viability, T/C: 112%
[12]
  viability, T/C: 85.7%
[13]
  viability, T/C: 107%
[14]
  viability, T/C: 99.3%
[15]
  viability, T/C: 100%
[16]
  viability, T/C: 106%
[17]
  viability, T/C: 100%
[18]
  viability, T/C: 72.9%
[19]
  viability, T/C: 99%
[20]
  viability, T/C: 116%
[21]
  viability, T/C: 97.5%
[22]
  viability, T/C: 93.6%
[23]
  viability, T/C: 101%
[24]
  viability, T/C: 95.7%
[25]
  viability, T/C: 99%
[26]
  viability, T/C: 93.8%
[27]
  viability, T/C: 87.3%
[28]
  viability, T/C: 98.7%
[29]
  viability, T/C: 104%
[30]
  viability, T/C: 57.4%
[31]
  viability, T/C: 94.5%
[32]
  viability, T/C: 94.7%
[33]
  viability, T/C: 99.1%
[34]
  viability, T/C: 91.2%
[35]
  viability, T/C: 107%
[36]
  viability, T/C: 87%

## CC1COCCN1c1cc(-c2ccnn2C)c2ccnc(-c3ccn[nH]3)c2n1 (stereo not given) + Cc1[nH]c2ccc(F)cc2c1-c1nc2c3cccnc3c3ncccc3c2[nH]1
Second compound 0.0316 µM
  IC50: 0.224 µM
Second compound 0.1 µM
  IC50: 0.139 µM
Second compound 0.316 µM
  IC50: 0.185 µM
Second compound 1 µM
  IC50: 0.17 µM
Second compound 3.16 µM
  IC50: 0.14 µM
Second compound 10 µM
  IC50: 0.14 µM
[1]
  viability, T/C: 96.6%
[2]
  viability, T/C: 70.7%
[3]
  viability, T/C: 41.7%
[4]
  viability, T/C: 25.1%
[5]
  viability, T/C: 30.2%
[6]
  viability, T/C: 20.1%
[7]
  viability, T/C: 97.8%
[8]
  viability, T/C: 56.3%
[9]
  viability, T/C: 34.1%
[10]
  viability, T/C: 25.2%
[11]
  viability, T/C: 24.9%
[12]
  viability, T/C: 19.9%
[13]
  viability, T/C: 91.5%
[14]
  viability, T/C: 62.1%
[15]
  viability, T/C: 40%
[16]
  viability, T/C: 27.7%
[17]
  viability, T/C: 22.6%
[18]
  viability, T/C: 23.9%
[19]
  viability, T/C: 91.5%
[20]
  viability, T/C: 63%
[21]
  viability, T/C: 33.6%
[22]
  viability, T/C: 32.2%
[23]
  viability, T/C: 22.9%
[24]
  viability, T/C: 24.7%
[25]
  viability, T/C: 91.9%
[26]
  viability, T/C: 57.9%
[27]
  viability, T/C: 30.2%
[28]
  viability, T/C: 26.1%
[29]
  viability, T/C: 21.2%
[30]
  viability, T/C: 17.9%
[31]
  viability, T/C: 90.1%
[32]
  viability, T/C: 50%
[33]
  viability, T/C: 40.3%
[34]
  viability, T/C: 31.5%
[35]
  viability, T/C: 22.6%
[36]
  viability, T/C: 16.4%

## CC1COCCN1c1cc(C2(O)CC3CCC(C2)O3)c2cnn(-c3ccn[nH]3)c2n1 (stereo not given) + Cc1[nH]c2ccc(F)cc2c1-c1nc2c3cccnc3c3ncccc3c2[nH]1
Second compound 0.0316 µM
  IC50: 0.236 µM
Second compound 0.1 µM
  IC50: 0.226 µM
Second compound 0.316 µM
  IC50: 0.234 µM
Second compound 1 µM
  IC50: 0.222 µM
Second compound 3.16 µM
  IC50: 0.176 µM
Second compound 10 µM
  IC50: 0.12 µM
[1]
  viability, T/C: 95.4%
[2]
  viability, T/C: 78%
[3]
  viability, T/C: 40.1%
[4]
  viability, T/C: 30.6%
[5]
  viability, T/C: 28.8%
[6]
  viability, T/C: 25.9%
[7]
  viability, T/C: 90.2%
[8]
  viability, T/C: 83.9%
[9]
  viability, T/C: 35.6%
[10]
  viability, T/C: 31.1%
[11]
  viability, T/C: 23.8%
[12]
  viability, T/C: 17%
[13]
  viability, T/C: 91.8%
[14]
  viability, T/C: 61.5%
[15]
  viability, T/C: 42.4%
[16]
  viability, T/C: 40%
[17]
  viability, T/C: 26.1%
[18]
  viability, T/C: 19.9%
[19]
  viability, T/C: 99.5%
[20]
  viability, T/C: 59.7%
[21]
  viability, T/C: 47.4%
[22]
  viability, T/C: 32.7%
[23]
  viability, T/C: 23.2%
[24]
  viability, T/C: 19.3%
[25]
  viability, T/C: 92.4%
[26]
  viability, T/C: 71.8%
[27]
  viability, T/C: 27.2%
[28]
  viability, T/C: 31.7%
[29]
  viability, T/C: 25.7%
[30]
  viability, T/C: 16.4%
[31]
  viability, T/C: 88.4%
[32]
  viability, T/C: 50.8%
[33]
  viability, T/C: 36.1%
[34]
  viability, T/C: 30%
[35]
  viability, T/C: 20.8%
[36]
  viability, T/C: 20.2%

## CC1COCCN1c1cc(C2(S(C)(=N)=O)CC2)nc(-c2ccnc3[nH]ccc23)n1 (stereo not given) + Cc1[nH]c2ccc(F)cc2c1-c1nc2c3cccnc3c3ncccc3c2[nH]1
Second compound 0.0316 µM
  IC50: 9.28 µM
Second compound 0.1 µM
  IC50: 6.38 µM
Second compound 0.316 µM
  IC50: 7.03 µM
Second compound 1 µM
  IC50: 7.04 µM
Second compound 3.16 µM
  IC50: 6.05 µM
Second compound 10 µM
  IC50: 5.79 µM
[1]
  viability, T/C: 109%
[2]
  viability, T/C: 108%
[3]
  viability, T/C: 104%
[4]
  viability, T/C: 96.1%
[5]
  viability, T/C: 81.5%
[6]
  viability, T/C: 47.2%
[7]
  viability, T/C: 105%
[8]
  viability, T/C: 116%
[9]
  viability, T/C: 104%
[10]
  viability, T/C: 110%
[11]
  viability, T/C: 69.2%
[12]
  viability, T/C: 37.6%
[13]
  viability, T/C: 92.6%
[14]
  viability, T/C: 110%
[15]
  viability, T/C: 99.8%
[16]
  viability, T/C: 101%
[17]
  viability, T/C: 69.7%
[18]
  viability, T/C: 41.3%
[19]
  viability, T/C: 90.7%
[20]
  viability, T/C: 110%
[21]
  viability, T/C: 102%
[22]
  viability, T/C: 95.5%
[23]
  viability, T/C: 81.5%
[24]
  viability, T/C: 36.1%
[25]
  viability, T/C: 107%
[26]
  viability, T/C: 93.6%
[27]
  viability, T/C: 92.2%
[28]
  viability, T/C: 98.7%
[29]
  viability, T/C: 69.5%
[30]
  viability, T/C: 35%
[31]
  viability, T/C: 119%
[32]
  viability, T/C: 105%
[33]
  viability, T/C: 93.3%
[34]
  viability, T/C: 95.1%
[35]
  viability, T/C: 68.4%
[36]
  viability, T/C: 32.5%

## O=C(c1cc(Cc2n[nH]c(=O)c3ccccc23)ccc1F)N1CCN(C(=O)C2CC2)CC1 + Cc1[nH]c2ccc(F)cc2c1-c1nc2c3cccnc3c3ncccc3c2[nH]1
Second compound 0.0316 µM
  IC50: > 10 µM
Second compound 0.1 µM
  IC50: > 10 µM
Second compound 0.316 µM
  IC50: > 10 µM
Second compound 1 µM
  IC50: > 10 µM
Second compound 3.16 µM
  IC50: > 10 µM
Second compound 10 µM
  IC50: > 10 µM
[1]
  viability, T/C: 99.5%
[2]
  viability, T/C: 97%
[3]
  viability, T/C: 107%
[4]
  viability, T/C: 101%
[5]
  viability, T/C: 98.6%
[6]
  viability, T/C: 74.2%
[7]
  viability, T/C: 102%
[8]
  viability, T/C: 100%
[9]
  viability, T/C: 93.8%
[10]
  viability, T/C: 102%
[11]
  viability, T/C: 105%
[12]
  viability, T/C: 72.3%
[13]
  viability, T/C: 93.9%
[14]
  viability, T/C: 105%
[15]
  viability, T/C: 98.9%
[16]
  viability, T/C: 100%
[17]
  viability, T/C: 104%
[18]
  viability, T/C: 73.7%
[19]
  viability, T/C: 98.8%
[20]
  viability, T/C: 95.1%
[21]
  viability, T/C: 104%
[22]
  viability, T/C: 107%
[23]
  viability, T/C: 85.9%
[24]
  viability, T/C: 53.4%
[25]
  viability, T/C: 99.5%
[26]
  viability, T/C: 105%
[27]
  viability, T/C: 95%
[28]
  viability, T/C: 96.8%
[29]
  viability, T/C: 110%
[30]
  viability, T/C: 67.2%
[31]
  viability, T/C: 96.5%
[32]
  viability, T/C: 87.6%
[33]
  viability, T/C: 98.2%
[34]
  viability, T/C: 84.3%
[35]
  viability, T/C: 91.3%
[36]
  viability, T/C: 52%
